What was measured:
[1] = tested on: spontaneously hypertensive rats (SHR); test: in vivo blood pressure regulation by a single administration (systolic pressure); set-up: species or system rat
Protocol: To investigate in vivo blood pressure regulation effect of the functional peptide separated from the oyster enzyme hydrolysate by a single administration, the peptide was administered to the hypertension animal model once (single administration), followed by the investigation of blood pressure.
Particularly, male spontaneously hypertensive rats (SHR; Central Lab. Animal Inc.) at 11 weeks and Wistar rats (Central Lab. Animal Inc.) were purchased, which were raised in a laboratory animal room in which the temperature was regulated at 22±3° C., the humidity was controlled at 50±5%, and the light/dark cycle was set at 12 h/12 h. Feeds and drinking water were provided freely. After a week of adaptation, the animals were divided into the experimental and the control groups and used for the experiment according to the guide line of Association for Assessment and Accreditation of Laboratory Care International approved by Institutional Animal Care and Use Committee, Kyunghee University College of Pharmacy. […] Then the animals were fixed for 20 minutes in a rat temperature control unit in which the temperature was maintained at 42° C. at the time point of 0, 3, 6, 9, 12, and 24 h, to let the tail vessel fully expanded. Then, systolic pressure was measured to investigate the antihypertensive activity.

[2] = tested on: spontaneously hypertensive rats (SHR); test: in vivo blood pressure regulation by the repeated administration (systolic pressure); set-up: species or system rat; settings: oral, daily for 4 weeks, hydrolysate 100 mg/kg, YA 50 μg/kg
Protocol: To investigate in vivo blood pressure regulation effect of the functional peptide separated from the oyster enzyme hydrolysate by the repeated administration, the peptide was administered to the hypertension animal model repeatedly, followed by the investigation of blood pressure.
(§1) Particularly, the same rats as described in Example <5-2> were purchased and raised under the same condition. […] Systolic pressure was measured by the same manner as described in Example <5-2> on week 0, week 1, week 2, week 3, and week 4. […] The blood sample was centrifuged at 3,000 rpm for 10 minutes, and as a result serum was obtained and stored at −80° C. The levels of blood ACE and angiotensin-II in the stored serum were measured by using a commercial ELISA kit (USCN Life Science, China) according to the manufacturer's protocol.

blood angiotensin-II = test: level of blood angiotensin-II in serum by ELISA after repeated administration; type: in vivo, rat; settings: SHR serum after 4 weeks of oral administration, compared with negative control
Protocol: as §1

blood ACE = test: level of blood ACE in serum by ELISA after repeated administration; type: in vivo, rat; settings: SHR serum after 4 weeks of oral administration, compared with negative control
Protocol: as §1

[3] = tested on: mild hypertension patients; settings: Shimizu 1994; cited from earlier work

C[C@H](CS)C(=O)N1CCC[C@H]1C(=O)O [Captopril, reference compound]
blood pressure lowering effect ([1]; by the negative control, Captopril 8 mg/kg, hydrolysate 100 mg/kg): 18˜19%

C[C@H](NC(=O)[C@@H](N)Cc1ccc(O)cc1)C(=O)O [YA, tyrosine-alanine]
blood pressure on repeated administration (in words) [2]: blood pressure did not increase for 2 weeks
level of blood angiotensin-II (in words) (blood angiotensin-II): significantly decreased
level of blood ACE (in words) (blood ACE): significantly decreased
blood pressure lowering effect after 6 hours from the administration ([1]; 50 μg/kg, 6 hours): 33.9%

valine-tyrosine [Val-Tyr]
activity of reducing blood pressure (in words) [3]: activity of reducing blood pressure

From patent US10308681B2, “Pharmaceutical composition for the prevention and treatment of cardiovascular disease comprising the peptide having the ability to inhibit angiotensin-1 converting enzyme as an active ingredient” (University-Industry Cooperation Group of Kyung Hee …, priority 2012, dated 2019)
